Values of other authors in paper PMC10381184, “Unprecedented Antimicrobial and Cytotoxic Polyketides from Cultures of Diaporthe africana sp. nov” (Journal of Fungi, 2023).

Test system: MptpB
Conditions: result in words; ref 63 (Cui et al.); cited from earlier work

Q: For `CC(C)=CCc1ccc(O)c2c1[C@H](c1cc(C)cc3c1O[C@H](C(C)(C)O)CO3)NC2=O` [diaporisoindole B], which “inhibitory activity against MptpB” value is on record?
A: failed to show any activity
